Results: article PMC3509132, “Global Epigenetic Changes Induced by SWI2/SNF2 Inhibitors Characterize Neomycin-Resistant Mammalian Cells” (PLoS ONE, 2012)
Where two headings read alike, the source gives them in different places.

What was measured:
[1] = tested on: MAD28 (ADAAD deletion construct; motifs Q, I); test: Fluorescence binding titration, deletion construct MAD28; settings: GST fusion
Procedure: (§1) His-ADAAD, used for binding studies, was purified as described previously. For mapping and CD studies, ADAAD as well as deletion constructs were expressed as GST-fusion protein in BL21 (DE3) cells and purified as described previously. In case of deletion constructs the GST-tag was not cleaved as the resultant proteins were not stable.
(§2) Fluorescence was measured at 25°C using Cary-Varian spectrofluorimeter as described previously. Stem-loop DNA (5′- […]-3′), synthesized by Sigma-Aldrich, was used in these studies. The intrinsic fluorescence quenching data obtained with acrylamide was analyzed using Stern-Volmer plots as described previously, [14].

[2] = target: T1, MAD 33 (ADAAD deletion construct; motifs Q, I, Ia) (Bos taurus, UniProt Q9TTA5); test: Fluorescence binding titration, deletion construct MAD33; settings: GST fusion
T1 sequence (Q9TTA5 211-507): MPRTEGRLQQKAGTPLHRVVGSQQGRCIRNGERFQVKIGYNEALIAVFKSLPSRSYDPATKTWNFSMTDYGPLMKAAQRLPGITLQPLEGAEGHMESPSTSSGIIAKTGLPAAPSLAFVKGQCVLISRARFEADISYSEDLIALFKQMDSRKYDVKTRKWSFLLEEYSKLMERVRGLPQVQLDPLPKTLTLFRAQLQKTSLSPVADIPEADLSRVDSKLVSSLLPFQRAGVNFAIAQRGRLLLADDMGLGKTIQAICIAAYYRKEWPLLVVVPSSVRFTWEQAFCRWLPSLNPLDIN
Procedure: as §1, §2
(§3) ADAAD contains the conserved helicase motifs (Table 2). Three deletion constructs of ADAAD-MAD47, MAD33, and MAD53-lacking DNA-dependent ATPase activity were used to delineate the interaction region (Table 2). The Kd values for the interaction of ADAADiN with MAD47 and MAD 33 were similar to that of wild type leading to the conclusion that motifs Q, I, and Ia are sufficient for the ADAADi-ADAAD interaction. In contrast, these three motifs are not sufficient for the slDNA-ADAAD interaction (Table 2). […]

[3] = target: T2, ADAAD (Bos taurus, UniProt Q9TTA5); settings: ADAAD alone; His-ADAAD; ref Nongkhlaw et al. (Nongkhlaw, 2009); cited from earlier work
T2 sequence (Q9TTA5 229-940 limits assumed): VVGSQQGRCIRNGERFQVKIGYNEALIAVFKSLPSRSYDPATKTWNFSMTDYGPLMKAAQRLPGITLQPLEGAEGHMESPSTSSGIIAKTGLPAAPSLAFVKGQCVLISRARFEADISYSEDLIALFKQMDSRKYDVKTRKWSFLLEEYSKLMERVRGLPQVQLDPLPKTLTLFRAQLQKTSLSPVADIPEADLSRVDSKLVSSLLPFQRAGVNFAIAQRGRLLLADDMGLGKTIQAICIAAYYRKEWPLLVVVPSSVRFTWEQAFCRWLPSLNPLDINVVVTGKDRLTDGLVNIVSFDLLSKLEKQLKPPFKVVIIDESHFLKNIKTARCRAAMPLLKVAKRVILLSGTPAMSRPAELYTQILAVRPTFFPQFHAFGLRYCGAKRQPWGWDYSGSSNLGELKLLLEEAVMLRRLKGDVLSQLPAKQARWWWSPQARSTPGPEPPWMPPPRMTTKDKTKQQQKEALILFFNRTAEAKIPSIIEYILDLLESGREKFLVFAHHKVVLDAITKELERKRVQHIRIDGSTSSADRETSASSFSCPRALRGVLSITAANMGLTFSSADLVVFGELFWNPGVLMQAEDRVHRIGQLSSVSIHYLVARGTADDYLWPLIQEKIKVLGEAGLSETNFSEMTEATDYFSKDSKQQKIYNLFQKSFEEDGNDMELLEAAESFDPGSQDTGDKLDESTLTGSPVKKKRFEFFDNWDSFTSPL

[4] = target: T3, MAD 53 (ADAAD deletion construct; motifs Ia, II, III, IV, V, VI) (Bos taurus, UniProt Q9TTA5); test: Fluorescence binding titration, deletion construct MAD53; settings: GST fusion
T3 sequence (Q9TTA5 465-940): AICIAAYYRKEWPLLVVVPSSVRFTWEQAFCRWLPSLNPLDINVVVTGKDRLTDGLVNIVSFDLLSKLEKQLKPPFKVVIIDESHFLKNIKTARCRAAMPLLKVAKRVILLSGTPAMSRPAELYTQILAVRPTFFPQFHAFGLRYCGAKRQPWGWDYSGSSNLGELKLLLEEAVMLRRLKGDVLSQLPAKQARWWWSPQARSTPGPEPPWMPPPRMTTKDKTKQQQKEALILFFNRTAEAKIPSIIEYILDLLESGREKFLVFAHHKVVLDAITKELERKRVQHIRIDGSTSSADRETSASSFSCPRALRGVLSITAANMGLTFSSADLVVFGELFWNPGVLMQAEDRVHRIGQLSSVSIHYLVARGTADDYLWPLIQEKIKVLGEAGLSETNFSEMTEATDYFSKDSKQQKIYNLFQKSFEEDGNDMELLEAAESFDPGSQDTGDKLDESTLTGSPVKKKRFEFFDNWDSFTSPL
Procedure: as §1, §2, §3

[5] = target: T4, MAD8 (ADAAD deletion construct; motif Ia) (Bos taurus, UniProt Q9TTA5); test: Fluorescence binding titration, deletion construct MAD8; settings: GST fusion
T4 sequence (Q9TTA5 465-535): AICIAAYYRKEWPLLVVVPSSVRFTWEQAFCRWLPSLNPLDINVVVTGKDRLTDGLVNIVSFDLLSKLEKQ
Procedure: as §1, §2

[6] = target: T2, ADAAD; test: Intrinsic tryptophan fluorescence quenching binding titration with His-ADAAD
Procedure: as §1, §2
To understand the interaction of ADAADi with ADAAD, a member of the SWI2/SNF2 family, we synthesized ADAADi using kanamycin and neomycin. These derivatives, ADAADiK and ADAADiN respectively, were purified and titrated with protein while monitoring the quenching of the intrinsic tryptophan fluorescence. […] This binding constant was same as that in the absence of ATP and slDNA. A similar result was obtained with ADAADiK (Figure S3A and S3B; Table 1). We thus conclude that the interaction of the inhibitor with ADAAD is independent of these two ligands.

[7] = target: T5, MAD 47 (ADAAD deletion construct; motifs Q, I, Ia, II, III) (Bos taurus, UniProt Q9TTA5); test: Fluorescence binding titration, deletion construct MAD47
T5 sequence (Q9TTA5 211-635): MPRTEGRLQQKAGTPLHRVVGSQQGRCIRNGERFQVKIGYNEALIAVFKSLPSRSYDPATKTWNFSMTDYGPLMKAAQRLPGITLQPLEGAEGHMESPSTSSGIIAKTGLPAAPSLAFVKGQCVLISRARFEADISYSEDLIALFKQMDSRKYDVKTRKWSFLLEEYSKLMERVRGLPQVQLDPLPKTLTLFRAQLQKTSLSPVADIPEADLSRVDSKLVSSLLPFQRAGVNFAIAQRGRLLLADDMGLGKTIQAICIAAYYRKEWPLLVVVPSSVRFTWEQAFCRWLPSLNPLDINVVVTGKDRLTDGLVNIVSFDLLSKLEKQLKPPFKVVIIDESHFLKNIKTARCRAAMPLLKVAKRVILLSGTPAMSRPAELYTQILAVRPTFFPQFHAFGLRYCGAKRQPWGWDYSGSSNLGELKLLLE
Procedure: as §1, §2, §3

Row | Molecule | Kd [1] [nM] | Kd [2] [nM] | Kd [3] [nM] | Kd [4] [nM] | Kd [5] [nM] | Kd ([6]; ADAAD + ADAADiK (2 μM ADAADiK), His-ADAAD, read-out: Kd) [nM] | Kd ([6]; ADAAD + ADAADiN (saturated with 2 μM ADAADiN), His-ADAAD, read-out: Kd) [nM] | Kd [7] [nM] | Kd [6] [nM] | fold higher affinity than in the absence of the inhibitor ([6]; in the presence of ADAADiK) [fold] | fold higher affinity than in the absence of the inhibitor ([6]; in the presence of ADAADiN) [fold]
1 | slDNA: Stem-loop DNA (5′- GCGCAATTGCGCTCGACGATTTTTTAGCGCAATTGCGC-3′), a well-characterized DNA effector of ADAAD (DNA, backbone and methylation of C not given here; stem-loop DNA) | 22.1 | 41.5 | 19.9 | 8.2 | 8.7 | 0.46 | 0.63 | 6.5 |  |  | 
2 | Nc1ncnc2c1ncn2[C@@H]1O[C@H](COP(=O)(O)OP(=O)(O)OP(=O)(O)O)[C@@H](O)[C@H]1O [ATP] |  |  | 1600 |  |  |  |  |  | 100 ± 3 | 10 | 10
